Data: patent publication US20160130278A1 (TAISHO PHARMACEUTICAL CO., LTD, priority 2013, published 2016)

biological target: T1, human type 1 glycine transporter (GlyT1) (Homo sapiens, UniProt P48067); experiment: Glycine uptake inhibition experiment ([3H]glycine uptake); format: cell-based; settings: GlyT1
T1 construct: T98G cells (glioma cells) expressing human type 1 glycine transporter (GlyT1) were used
T1 sequence (P48067 1-706): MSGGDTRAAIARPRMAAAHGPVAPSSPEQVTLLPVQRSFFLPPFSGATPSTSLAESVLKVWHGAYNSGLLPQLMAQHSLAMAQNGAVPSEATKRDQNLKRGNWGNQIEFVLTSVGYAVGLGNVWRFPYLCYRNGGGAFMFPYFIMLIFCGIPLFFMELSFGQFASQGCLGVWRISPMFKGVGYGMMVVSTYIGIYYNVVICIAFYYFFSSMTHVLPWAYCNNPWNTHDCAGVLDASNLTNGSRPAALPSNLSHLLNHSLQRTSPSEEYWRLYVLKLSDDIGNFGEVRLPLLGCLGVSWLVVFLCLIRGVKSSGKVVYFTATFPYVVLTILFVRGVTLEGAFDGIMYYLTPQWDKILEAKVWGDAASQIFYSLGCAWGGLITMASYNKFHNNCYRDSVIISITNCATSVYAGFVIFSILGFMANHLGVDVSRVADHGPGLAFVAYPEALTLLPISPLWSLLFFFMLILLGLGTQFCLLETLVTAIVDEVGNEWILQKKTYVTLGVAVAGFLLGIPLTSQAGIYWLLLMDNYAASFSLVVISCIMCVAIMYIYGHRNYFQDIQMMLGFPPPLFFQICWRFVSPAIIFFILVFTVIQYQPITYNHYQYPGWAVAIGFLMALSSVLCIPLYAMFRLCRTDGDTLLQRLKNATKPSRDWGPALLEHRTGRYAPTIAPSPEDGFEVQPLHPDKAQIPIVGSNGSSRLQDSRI
Method in brief: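 T98G glioma cells expressing human GlyT1 were pretreated 10 min with compound in HEPES buffer pH 7.4 (0.2% BSA), then incubated with compound plus 250 nM final [3H]glycine for 15 min at room temperature. Intracellular radioactivity was counted after NaOH lysis; 10 μM ALX5407 defined non-specific uptake. IC50 came from 10^−9–10^−5 M curves.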

Structure (SMILES)	IC50
CCn1cc(-c2cccc(C(NC(=O)c3nccc(C(F)(F)F)c3Cl)C3(O)CCC(F)(F)CC3)c2)cn1 (single isomer, unassigned) [Compound 92, 3-chloro-N-{(4,4-difluoro-1-hydroxycyclohexyl)[3-(1-ethyl-1H-pyrazol-4-yl)phenyl]methyl}-4-(trifluoromethyl)pyridine-2-carboxamide]	27 nM
O=C(NC(c1cccc(F)c1Cl)[C@]1(O)CC[C@@H](F)CC1)c1c(F)cccc1Cl (single isomer, unassigned) [Compound 301, 2-chloro-N-[(2-chloro-3-fluorophenyl)(cis-4-fluoro-1-hydroxycyclohexyl)methyl]-6-fluorobenzamide]	1100 nM
O=C(N[C@@H](c1cccc(Br)c1)C1(O)CCCC1)c1nccc(C(F)(F)F)c1-n1nccn1 [Compound 70, N-[(S)-(3-bromophenyl)(1-hydroxycyclopentyl)methyl]-3-(2H-1,2,3-triazol-2-yl)-4-(trifluoromethyl)pyridine-2-carboxamide]	1200 nM
O=C(N[C@H](c1cccc(Cl)c1)[C@]1(O)CC[C@@H](F)CC1)c1nccc(C(F)(F)F)c1Cl [Compound 161, 3-chloro-N-[(R)-(3-chlorophenyl)(cis-4-fluoro-1-hydroxycyclohexyl)methyl]-4-(trifluoromethyl)pyridine-2-carboxamide]	6700 nM
CCn1cc(-c2cccc(C(NC(=O)c3ccc(Cl)c(Cl)c3)C3(O)CCC(F)(F)CC3)c2)cn1 (stereo not shown) [Compound 175, 3,4-dichloro-N-{(4,4-difluoro-1-hydroxycyclohexyl)[3-(1-ethyl-1H-pyrazol-4-yl)phenyl]methyl}benzamide]	4000 nM
O=C(NC(c1cccc(F)c1Cl)[C@]1(O)CC[C@@H](F)CC1)c1ccc(C(F)(F)F)cc1Cl (single isomer, unassigned) [Compound 298, 2-chloro-N-[(2-chloro-3-fluorophenyl)(cis-4-fluoro-1-hydroxycyclohexyl)methyl]-4-(trifluoromethyl)benzamide]	410 nM
CCn1cc(-c2cccc(C(NC(=O)c3cc(Cl)ccc3Cl)C3(O)CCC(F)(F)CC3)c2)cn1 (single isomer, unassigned) [Compound 193, 2,5-dichloro-N-{(4,4-difluroo-1-hydroxycyclohexyl)[3-(1-ethyl-1H-pyrazol-4-yl)phenyl]methyl}benzamide]	830 nM
O=C(NC(c1cccc(F)c1)C1(O)CCC(F)(F)CC1)c1nccc(C(F)(F)F)c1Cl (stereo not shown) [Compound 75, 3-chloro-N-[(4,4-difluoro-1-hydroxycyclohexyl)(3-fluorophenyl)methyl]-4-(trifluoromethyl)pyridine-2-carboxamide]	240 nM
O=C(NC(c1ccc(F)c(Cl)c1)C1(O)CCCC1)c1nccc(C(F)(F)F)c1Cl (stereo not shown) [Compound 93, 3-chloro-N-{(3-chloro-4-fluorophenyl)(1-hydroxycyclopentyl)methyl}-4-(trifluoromethyl)pyridine-2-carboxamide]	430 nM
O=C(NC(c1cccc(Cl)n1)C1(O)CCC(F)(F)CC1)c1nccc2ccccc12 (single isomer, unassigned) [Compound 355, N-[(6-chloropyridin-2-yl)(4,4-difluoro-1-hydroxycyclohexyl)methyl]isoquinoline-1-carboxamide]	130 nM
O=C(NC(c1cccc(F)c1Cl)[C@]1(O)CC[C@@H](F)CC1)c1cc(C(F)(F)F)ccc1Cl (single isomer, unassigned) [Compound 292, 2-chloro-N-[(2-chloro-3-fluorophenyl)(cis-4-fluoro-1-hydroxycyclohexyl)methyl]-5-(trifluoromethyl)benzamide]	120 nM
CCn1cc(-c2cccc(C(NC(=O)c3nccc(C(F)(F)F)c3Cl)C3(O)CCC(F)(F)CC3)c2)cn1 (stereo not shown) [Compound 86, 3-chloro-N-{(4,4-difluroo-1-hydroxycyclohexyl)[3-(1-ethyl-1H-pyrazol-4-yl)phenyl]methyl}-4-(trifluoromethyl)pyridine-2-carboxamide]	73 nM
CCn1cc(-c2cccc(C(NC(=O)c3c(Cl)cccc3Cl)C3(O)CCC(F)(F)CC3)c2)cn1 (stereo not shown) [Compound 174, 2,6-dichloro-N-{(4,4-difluoro-1-hydroxycyclohexyl)[3-(1-ethyl-1H-pyrazol-4-yl)phenyl]methyl}benzamide]	1100 nM
O=C(NC(c1cccc(F)c1Cl)[C@]1(O)CC[C@@H](F)CC1)c1ccccc1C(F)(F)F (single isomer, unassigned) [Compound 276, N-[(2-chloro-3-fluorophenyl)(cis-4-fluoro-1-hydroxycyclohexyl)methyl]-2-(trifluoromethyl)benzamide]	1600 nM
O=C(NC(c1cccc(F)c1)C1(O)CCCC1)c1cccc(C(F)(F)F)c1Cl (single isomer, unassigned) [Compound 72, 2-chloro-N-[(3-fluorophenyl)(1-hydroxycyclopentyl)methyl]-3-(trifluoromethyl)benzamide]	7100 nM
O=C(NC(c1cccc(Cl)c1F)C1(O)CCC(F)(F)CC1)c1ccnc(C(F)(F)F)c1Cl (single isomer, unassigned) [Compound 169, 3-chloro-N-[(3-chloro-2-fluorophenyl)(4,4-difluoro-1-hydroxycyclohexyl)methyl]-2-(trifluoromethyl)pyridine-4-carboxamide]	95 nM
CCn1cc(-c2cccc(C(NC(=O)c3ccc(Cl)cc3Cl)C3(O)CCC(F)(F)CC3)c2)cn1 (stereo not shown) [Compound 191, 2,4-dichloro-N-{(4,4-difluoro-1-hydroxycyclohexyl)[3-(1-ethyl-1H-pyrazol-4-yl)phenyl]methyl}benzamide]	1300 nM
COc1cccc(C(NC(=O)c2nccc(C(F)(F)F)c2Cl)C2(O)CCCC2)c1 (stereo not shown) [Compound 51, 3-chloro-N-[(1-hydroxycyclopentyl)(3-methoxyphenyl)methyl]-4-(trifluoromethyl)pyridine-2-carboxamide]	370 nM
CS(=O)(=O)c1ccc(Cl)cc1C(=O)NC(c1cccc(F)c1Cl)[C@]1(O)CC[C@@H](F)CC1 (single isomer, unassigned) [Compound 364, 5-chloro-N-[(2-chloro-3-fluorophenyl)(cis-4-fluoro-1-hydroxycyclohexyl)methyl]-2-(methylsulfonyl)benzamide]	530 nM
O=C(NC(c1cccc(Cl)c1)C1(O)CCCC1)c1nccc(C(F)(F)F)c1Cl (single isomer, unassigned) [Compound 54, 3-chloro-N-[(3-chlorophenyl)(1-hydroxycyclopentyl)methyl]-4-(trifluoromethyl)pyridine-2-carboxamide]	57 nM
NC(=O)c1cccc(C(NC(=O)c2nccc(C(F)(F)F)c2Cl)C2(O)CCCC2)c1 (stereo not shown) [Compound 106, N-[(3-carbamoylphenyl)(1-hydroxycyclopentyl)methyl]-3-chloro-4-(trifluoromethyl)pyridine-2-carboxamide]	900 nM

same assay, conditions: human GlyT1

Structure (SMILES)	IC50
O=C(NC(c1ccccc1Cl)C1(O)CCC(F)(F)CC1)c1ccc(C(F)(F)F)nc1Cl (single isomer, unassigned) [Compound 409, 2-chloro-N-[(2-chlorophenyl)(4,4-difluoro-1-hydroxycyclohexyl)methyl]-6-(trifluoromethyl)pyridine-3-carboxamide]	1100 nM
